These results are taken from patent publication US4960770A, “2-alkyl thieno(triazolo)diazepine compounds and pharmaceutical uses thereof” (Yoshitomi Pharmaceutical Industries, Ltd., priority 1987, dated 1990).

One test concerns PAF-induced lethal shock. Description: Effect of PAF-induced lethal shock in mice. The class given is in vivo, male ICR mice. The note with it: 1 hour before PAF 80 μg/kg i.v., 24 hours. The method, then:
The experiment was carried out according to the method of Young et al. described in Prostaglandins, vol. 30, p. […] Groups of 9 to 15 male ICR mice (Charles River) weighing 25-30 g were used. 80 μg/kg of PAF (Serdary Research Labo.) solution was intravenously administered in a lateral tail vein 1 hour after the oral administration of test compound (0.1 ml/10 g). […] Results were given as number of survivors/number of employed animals and survival rates (%) in Table 4.

Test [1] concerns coronary artery blood flow. The experiment in a line: Effect on coronary flow (coronary artery blood flow in anesthetized dogs). The class given is in vivo, mongrel dogs. The conditions noted are these: relative to flow increase at 3 μg nifedipine. Here is the method: Adult mongrel dogs were anesthetized with sodium pentobarbital (30 mg/kg, i.v.). According to the method of Yago et al described in Folia Pharmacologica Japonica, vol. 57, p. 380 (1961), the left coronary artery was perfused and its blood flow was measured. Test compound was injected into the coronary artery at a volume of 10-30 μl. To determine the effect of the test compound on coronary artery blood flow, an increase percentage of blood flow at each dosage was calculated based on the increase of the blood flow at a dosage of 3 μg of nifedipine.

Test [2] concerns the target T1, calmodulin (bovine encephalon) (Bos taurus, UniProt P62157).
T1 construct: calmodulin (bovine encephalon); from tissue; host or cells: bovine encephalon (brain)
Description: Calmodulin inhibitory action (NPN fluorescence probe method). It is filed as biochemical. The method, then: Calmodulin inhibitory action was measured according to the modified method of Epstein et al. described in Biochemical and Biophysical Research Communications, Vol. 105, p. 1142 (1982). Briefly, to 25 mM Tris-HCl buffer solution (pH 7.0) were added as a final concentration 1 mM calcium chloride, 5 μM N-phenyl-1-naphthylamine (NPN), 1000 units of calmodulin (bovine encephalon) and each of test compound to give 3 ml of final solution volume. The solution was allowed to stand at room temperature for 1 hour and the fluorescence intensity was measured by a fluorescene photometer (ex. 350 nm, em. 440 nm). A blank was prepared by adding water instead of calmodulin. Each of test compound was dissolved in dimethyl sulfoxide or 2.5% dimethyl sulfoxide solution and the final concentration of dimethyl sulfoxide was adjusted to 0.25%.

For test [3], the system named is PAF-induced platelet aggregation. The experiment in a line: Inhibitory effect on platelet aggregation in rabbits (in vitro test). The note with it: Oryctolagus cuniculus, rabbit PRP, PAF 1.8×10^-7 M, 37° C., read-out: Inhibition of PAF-induced platelet aggregation, IC50. It is filed as cell-based. The method, then: (§1) Blood samples to which was added 0.1 volume of 3.8% sodium citrate were collected from rabbits. Platelet rich plasma (PRP) was prepared by centrifuging the blood sample at 200 x g for 10 minutes, and platelet poor plasma (PPP) was prepared by centrifuging the remaining blood sample at 1000 x g for 10 minutes.
(§2) Aggregation ability was measured with a turbidimetric device (6-channel NKK Hematracer 1, model PAT-6A) according to the method of G.V.R. Born described in J. Physiology, vol. 168, p. 178 (1963). The aggregometer was adjusted in sensitivity to give light transmission values of 0 and 100% for PRP and PPP, respectively. With stirring at 1000 rpm, 0.3 μl of test compound solution or vehicle was added to 0.3 ml of PRP. After the mixture was kept at 37° C. for 2 minutes, to the mixture was added 3 μl of synthesized platelet activating factor at the final concentration of 1.8×10^-7 M and the light transmission was recorded for 5 minutes.
(§3) The inhibition percentage of test compounds on platelet aggregation were calculated from the following formula by measuring the maximal light transmission in the presence and absence of the test compounds. [formula]

The target of test [4] is calcium/calmodulin dependent phosphodiesterase. The experiment in a line: Effect on calcium/calmodulin dependent phosphodiesterase. It is filed as biochemical. The note with it: [3H]-cAMP, pH 8.0, 37° C., 20 minutes; read-out: Inhibitory action on calcium/calmodulin dependent phosphodiesterase IC50. Here is the method: The experiment was carried out according to the method of Thompson et al. described in Advances in Cyclic Nucleotide Research, Vol. 10, p. 69 (1979). Briefly, the solution of which final volume was 200μl was prepared by mixing 40 μl of 200 mM Tris-HCl buffer solution (pH 8.0), containing 25 mM magnesium chloride and 0.5 mM ethyleneglycol-bis(β-aminoethylether)-N,N '-tetra acetic acid (EGTA), 20 μof 10μM [^3 H]-cAMP (250 nCi), test compound and a solution of calcium/calmodulin dependent phosphodiesterase (PDE) enzyme. The test compound was dissolved in dimethyl sulfoxide to give 1% of final concentration. The incubation was performed at 37° C. for 20 minutes and then stopped by heating for 1 minutes in a boiling water bath. The resulting 5'-AMP was converted into adenosine by adding 50 μl of snake venom (1 mg/ml) and incubating at 30° C. for 10 minutes. Then, to the solution was added 500 μl of AGI-X8 (methanol:resin=3:2) and the mixture was allowed to stand under ice-cooling for 15 minutes with occasional shaking to adsorb the unreacted cAMP. After centrifuging, the radioactivity of the supernatant was measured by a liquid scintillation counter.
The action of the test compound on PDE activity was studied by calculating the inhibition percentage in the absence of calcium/calmodulin from the following formula, and represented as IC50 value. [formula] a: PDE activity in the presence of test compound and in the absence of calmodulin
b: PDE activity in the absence of test compound and calmoduline

Test [5] relates to PAF-induced platelet aggregation. Description: Inhibitory effect on platelet aggregation in rabbits (ex vivo test). The note with it: 10 mg/kg p.o.; for inhibition at 10 mg/kg: Oryctolagus cuniculus, Platelet, po, read-out: % of inhibition after administration. The method, then: as §1, §2, §3
Test compound was orally administered to a group of three rabbits instead of adding it to PRP as in vitro test of Experiment 2, and then the citrated blood samples (1 volume of 3.8% sodium citrate +9 volumes of blood) were collected with the passage of time. Then, the blood samples were employed to determine the inhibitory effect according to Experiment 2.

The test system of a further test is vertebral blood flow. Description: Effect of vertebral blood flow (anesthetized dogs). It is filed as in vivo, mongrel dogs. The note with it: Canis lupus familiaris; dose required to obtain 100% of the flow increase by intraartery 3 μg/kg nifedipine. The method, then:
Adult mongrel dogs were anesthetized with sodium pentobarbital (30 mg/kg. i.v.) and the blood flow of the left vertebral artery was measured.

The mark [6] stands for this setting: dosage 30 μg into coronary artery.
[7] abbreviates: dosage 100 μg into coronary artery.
The mark [8] stands for this setting: dosage 300 μg into coronary artery.

Converted amounts (≈) assume the structure as drawn. Like-named read-outs stand apart in the source and are kept apart here.

In the case of `CCCCCCc1cc2c(s1)-n1c(C)nnc1C(C)N=C2c1ccccc1Cl` (stereo not drawn) [Example 74, 4-(2-chlorophenyl)-2-hexyl-6,9-dimethyl-6H-thieno[3,2-f][1,2,4]triazolo[4,3-a][1,4]diazepine], the “Number of Survivors/Number of Animals” value with PAF-induced lethal shock (0.1 mg/kg p.o.) is given as 5/6; in the test on PAF-induced lethal shock (1 mg/kg p.o.) it was 7/7. The Survival rate with PAF-induced lethal shock (0.1 mg/kg p.o.) amounted to 83.3%; in the test on PAF-induced lethal shock (1 mg/kg p.o.) it was 100%. Besides, the “Effect on coronary blood flow” value turned out to be 16% in test [1] (setting [6]), 57% in test [1] (setting [7]) and 86% in test [1] (setting [8]). Further, the IC50 in test [2] came to 1.2 µM.
Turning to `CCCCCCCCCCc1cc2c(s1)-n1c(C)nnc1CN=C2c1ccccc1OC` [Example 69, 2-decyl-4-(2-methoxyphenyl)-9-methyl-6H-thieno[3,2-f][1,2,4]triazolo[4,3-a][1,4]diazepine], the IC50 in test [3] fell in the range of 0.3 to 1 mg/L (≈ 0.666 to 2.22 µM).
For `CCCCCCCCc1cc2c(s1)-n1c(C)nnc1CN=C2c1ccccc1Cl` [Example 57, 4-(2-chlorophenyl)-2-octyl-9-methyl-6H-thieno[3,2-f][1,2,4]triazolo[4,3-a][1,4]diazepine], the IC50 in test [4] is 11 µM; in test [3] it was 0.01 to 0.1 mg/L (≈ 0.0234 to 0.234 µM).
Turning to `CCCCCCc1cc2c(s1)-n1c(C)nnc1CN=C2c1ccccc1OC` [Example 55, 2-hexyl-4-(2-methoxyphenyl)-9-methyl-6H-thieno[3,2-f][1,2,4]triazolo[4,3-a][1,4]diazepine], in test [3], the IC50 was 0.03 to 0.1 mg/L (≈ 0.076 to 0.253 µM).
Take `CCOC(=O)C1=C[C@]2(CC)CCCN3CCc4c(n1c1ccccc41)[C@@H]32` [vinpocetine, reference compound]: the IC50 in test [4] turned out to be 88 µM.
As to `CCc1cc2c(s1)-n1c(C)nnc1CN=C2c1ccccc1Cl` [Etizolam, 6-(o-chlorophenyl)-8-ethyl-1-methyl-4H-s-triazolo[3,4-c]thieno[2,3-e][1,4]diazepine, reference compound], the IC50 in test [3] was determined as 1.3 mg/L (≈ 3.79 µM). In addition, the “% of inhibition at each time after administration (in words)” value in test [5] (one entry for 1, 3 and 6 hours) is listed as “no effect”.
Take `CCCCCCc1cc2c(s1)-n1c(C)nnc1CN=C2c1ccccc1C` [Example 58, 2-hexyl-4-(2-methylphenyl)-9-methyl-6H-thieno[3,2-f][1,2,4]triazolo[4,3-a][1,4]diazepine]: the results for the “Effect on coronary blood flow” value in test [1] (setting [6]), in test [1] (setting [7]) and in test [1] (setting [8]) were 63%, 107% and 136%, respectively.
With `CCCCCCc1cc2c(s1)-n1c(C)nnc1CN=C2c1cccc(C)c1` [Example 62, 2-hexyl-4-(3-methylphenyl)-9-methyl-6H-thieno[3,2-f][1,2,4]triazolo[4,3-a][1,4]diazepine], in the test with PAF-induced lethal shock (3 mg/kg p.o.), the “Number of Survivors/Number of Animals” value is listed as 6/8 and the Survival rate worked out at 75%. In addition, the IC50 in test [4] turned out to be 11 µM.
In the case of `CCCCCCCCCCCCc1cc2c(s1)-n1c(C)nnc1CN=C2c1ccccc1Cl` [Example 73, 4-(2-chlorophenyl)-2-dodecyl-9-methyl-6H-thieno[3,2-f][1,2,4]triazolo[4,3-a][1,4]-diazepine], the IC50 in test [3] lay in the range of 0.3 to 1 mg/L (≈ 0.621 to 2.07 µM).
Consider `CCCCCCc1cc2c(s1)-n1c(C)nnc1CN=C2c1ccc(C)cc1` [Example 61, 2-hexyl-4-(4-methylphenyl)-9-methyl-6H-thieno[3,2-f][1,2,4]triazolo[4,3-a][1,4]diazepine], for which the results for the “Number of Survivors/Number of Animals” value in the test on PAF-induced lethal shock (1 mg/kg p.o.) and in the test with PAF-induced lethal shock (3 mg/kg p.o.) were 6/8 and 8/8, respectively. Also, the Survival rate with PAF-induced lethal shock (1 mg/kg p.o.) was 75%; with PAF-induced lethal shock (3 mg/kg p.o.), 100%. Also, the “Effect on coronary blood flow” value in test [1] (setting [6]) amounted to 55%; in test [1] (setting [7]), 69%; in test [1] (setting [8]), 103%.
Consider `CCCCCCc1cc2c(s1)-n1c(C)nnc1CN=C2c1cc(C)ccc1C` [Example 65, 2-hexyl-4-(2,5-dimethylphenyl)-9-methyl-6H-thieno[3,2-f][1,2,4]triazolo[4,3-a][1,4]diazepine], for which, in the test on vertebral blood flow, the ED100 is 0.099 mg/kg. Besides, the IC50 in test [4] was determined as 20 µM.
Take `CCCCCCc1cc2c(s1)-n1c(C)nnc1CN=C2c1ccccc1Cl` [Example 54, 4-(2-chlorophenyl)-2-hexyl-9-methyl-6H-thieno[3,2-f][1,2,4]triazolo[4,3-a][1,4]diazepine]: the results for the “Number of Survivors/Number of Animals” value with PAF-induced lethal shock (0.3 mg/kg p.o.) and in the test with PAF-induced lethal shock (3 mg/kg p.o.) were 3/10 and 10/10, respectively. Also, the Survival rate with PAF-induced lethal shock (0.3 mg/kg p.o.) is given as 30%; with PAF-induced lethal shock (3 mg/kg p.o.), 100%. In addition, in test [3], the IC50 lay within 0.03 to 0.1 mg/L (≈ 0.0752 to 0.251 µM). Besides, the inhibition at 10 mg/kg in test [5] (1 hour) was 100%; in test [5] (3 hours), 100%; in test [5] (6 hours), 85%.
As for `CCCCCCCCCCc1cc2c(s1)-n1c(C)nnc1CN=C2c1ccccc1Cl` [Example 72, 4-(2-chlorophenyl)-2-decyl-9-methyl 6H-thieno[3,2-f][1,2,4]triazolo[4,3-a][1,4]-diazepine], the IC50 in test [3] fell in the range of 0.03 to 0.1 mg/L (≈ 0.0659 to 0.22 µM).
`CCCCCCc1cc2c(s1)-n1c(C)nnc1CN=C2c1cc(OC)c(OC)c(OC)c1` [Example 67, 2-hexyl-4-(3,4,5-trimethoxyphenyl)-9-methyl-6H-thieno[3,2-f][1,2,4]triazolo[4,3-a][1,4]diazepine]: the “Effect on coronary blood flow” value in test [1] (setting [6]) worked out at 43%; in test [1] (setting [7]), 86%; in test [1] (setting [8]) it was 114%. In the test with vertebral blood flow, this molecule came in with an ED100 of 0.078 mg/kg. Moreover, the IC50 in test [4] turned out to be 7 µM.
